{"source": "paper PMC6274350", "about": "“Design, Synthesis, and Cytotoxicity of 5-Fluoro-2-methyl-6-(4-aryl-piperazin-1-yl) Benzoxazoles” (Molecules, 2016)", "key": {"[1]": {"test_system": "A-549 lung carcinoma cells", "test": "CellTiter-Glo luminescent cell viability (cytotoxicity) assay on lung cancer cells", "assay_type": "cell-based, human", "experimental": "(§1) The cytotoxicity of prepared benzoxazoles (7a–j) and intermediates (6a–j and 9) were measured by applying the CellTiter-Glo® luminescent cell proliferation assay (G755A, Promega, Madison, WI, USA). This method permits the determination of viable cells numbers in the culture based on quantitation of the ATP present, which denotes the presence of metabolically active cells. In vitro cytotoxicity analysis was overall performed following the protocol as described in “Guidance Document on Using in Vitro Data to Estimate in Vivo Starting Doses for Acute Toxicity Based on Recommendations” [18]. Human A-549 cells are human lung cancer epithelial cells, which were chosen as the tumor model, whereas the HepaRG™ cell line is a classic hepatic cell line that retains many characteristics of primary human hepatocytes. HepaRG™ cells are terminally differentiated.\n(§2) Human cell cultures: Hepatocytes (HepaRG^TM cells) were obtained from Life Technologies, and were cultivated in William’s E Medium (Gibco, Life Technologies, Waltham, MA, USA) and supplemented with 1x GlutaMAX™ plus 1x HepaRG^TM General Purpose Medium Supplement in 25-cm^2 or 75-cm^2 flasks (TPP, Trasadingen, Switzerland) at 37 °C and 5% CO2. Lung cancer epithelial cells A-549 were propagated in Epilife Medium (Gibco, Life Technologies; MEPICF) and combined with CaCl2 and 1x-growth-supplement containing penicillin and streptomycin (Gibco, Life Technologies). For sub-culturing, cells were split at a ratio of 1:4 to 1:8. For cryopreservation, cells were frozen in 10% DMSO in liquid nitrogen.\n(§3) Human cytotoxicity assay: Human hepatocytes or human lung carcinoma cells were seeded into sterile black clear-bottomed polystyrene Corning® CellBind® 96-well plates (Munich, Germany) at a density of 20,000 cells/well after calculating cell numbers from trypsinized samples in a classical Neubauer Improved hemocytometer (VWR, Munich, Germany). The cells were grown for 24 h at 37 °C in a 5% CO2 atmosphere in Epilife medium (keratinocytes) or William′s E medium (hepatocytes). After a 24-h recovery period, media were removed from the wells by aspiration. The cells were then immediately exposed to the respective test compounds or reference antibiotics (prepared in advance in 100 µL of the same media) for 24 h 37 °C with 5% CO2. The concentration tested ranged from 0.1 µM to 500 µM (0.1 µM, 1 µM, 10 µM, 50 µM, 100 µM, 250 µM, and 500 µM) and was formulated as a 100× concentrated stock each, resulting in a final constant DMSO concentration of 1% per 100-µL sample volume. Test series were each performed in triplicate, and additionally included a vehicle reference (DMSO only) plus another internal control for evaluating overall assay performance. Additionally, cells were visually examined under a light microscope for any morphological abnormalities relative to the untreated cells. Subsequently, cell viability, as an indicator of potential cytotoxicity, was measured by applying the CellTiter-Glo® luminescent cell proliferation assay (G755A, Promega, Madison, WI, USA). This method permits the determination of the number of viable cells in culture based on quantitation of the ATP present, which denotes the presence of metabolically active cells. To this end, 100 µL (equal to the volume of culture medium) of the kit-provided CellTiter-Glo® reagent (reconstituted by transferring the thawed CellTiter-Glo® buffer to the lyophilized enzyme and substrate mixture) was directly added to each well with a repetitive dispensing pipette. The contents were then mixed for 2 min at room temperature on an orbital minishaker (IKA® MS3 digital, Staufen, Germany) at 450 rpm to induce efficient cell lysis, and then further incubated for 10 min at room temperature for stabilization of the resultant luminescent signal. […]"}, "[2]": {"test": "CellTiter-Glo luminescent cell viability (cytotoxicity) assay on hepatocytes", "assay_type": "cell-based, human", "settings": "human, Liver cells, hepatocytes (HepaRG), 24 h, vs DMSO vehicle", "experimental": "as §1, §2, §3"}, "[3]": {"test_system": "HepaRG cells (liver cells, hepatocytes)", "test": "CellTiter-Glo luminescent cell viability (cytotoxicity) assay on hepatocytes", "assay_type": "cell-based, human", "experimental": "as §1, §2, §3"}, "[4]": {"test": "Visible solubility / precipitation of test compounds in cell-culture media", "assay_type": "physicochemical", "experimental": "Since the majority of test compound solutions with concentrations above 50 µM precipitated in cell-culture media, we performed cytotoxicity assays for healthy and cancer cells at 50 µM."}, "[5]": {"settings": "Homo sapiens, A549, Lung cancer cells (A-549), 24 h, vs DMSO vehicle"}}, "data": [{"smiles": "O=[N+]([O-])c1cc(F)c(N2CCN(c3ccc(F)cc3)CC2)cc1O", "note": "[Compound 6d, 4-Fluoro-5-[4-(4-fluoro-phenyl)-piperazin-1-yl]-2-nitro-phenol]", "values": [{"measurement": "CT50", "setting": "[1]; A-549 lung cancer cells, equal toxicity to both cell lines", "result": "~ 50 µM"}, {"measurement": "viability at 0.1 µM", "setting": "[1]; [5]", "result": 103, "unit": "%"}, {"measurement": "viability at 1 µM", "setting": "[1]; [5]", "result": 111, "unit": "%"}, {"measurement": "viability at 10 µM", "setting": "[1]; [5]", "result": 78, "unit": "%"}, {"measurement": "viability at 50 µM", "setting": "[1]; [5]", "result": 58, "unit": "%"}, {"measurement": "viability at 100 µM", "setting": "[1]; [5]", "result": 54, "unit": "%"}, {"measurement": "viability at 250 µM", "setting": "[1]; [5]", "result": 46, "unit": "%"}, {"measurement": "viability at 500 µM", "setting": "[1]; Homo sapiens, A549, Lung cancer cells (A-549), 500 µM, 24 h, vs DMSO vehicle", "result": 34, "unit": "%"}, {"measurement": "melting point", "result": "151 to 152", "unit": "°C"}, {"measurement": "viability at 24 h, 0.1 µM", "setting": "[2]", "result": 94, "unit": "%"}, {"measurement": "viability at 24 h, 1 µM", "setting": "[2]", "result": 87, "unit": "%"}, {"measurement": "viability at 24 h, 10 µM", "setting": "[2]", "result": 101, "unit": "%"}, {"measurement": "viability at 24 h, 50 µM", "setting": "[2]", "result": 57, "unit": "%"}, {"measurement": "viability at 24 h, 100 µM", "setting": "[2]", "result": 62, "unit": "%"}, {"measurement": "viability at 24 h, 250 µM", "setting": "[2]", "result": 44, "unit": "%"}, {"measurement": "viability at 24 h, 500 µM", "setting": "[2]", "result": 13, "unit": "%"}, {"measurement": "CT50", "setting": "[3]; hepatocytes (HepaRG), equal toxicity to both cell lines", "result": "~ 50 µM"}, {"measurement": "Solubility at test concentrations", "setting": "[4]; cell-culture media, 0.1-500 µM", "result": "completely soluble at all concentrations"}]}, {"smiles": "Cc1nc2cc(F)c(N3CCN(c4ccc(Cl)c(Cl)c4)CC3)cc2o1", "note": "[Compound 7j, 6-[4-(3,4-Dichloro-phenyl)-piperazin-1-yl]-5-fluoro-2-methyl-benzooxazole]", "values": [{"measurement": "viability at 0.1 µM", "setting": "[1]; [5]", "result": 98, "unit": "%"}, {"measurement": "viability at 1 µM", "setting": "[1]; [5]", "result": 94, "unit": "%"}, {"measurement": "viability at 10 µM", "setting": "[1]; [5]", "result": 81, "unit": "%"}, {"measurement": "viability at 50 µM", "setting": "[1]; [5]", "result": 70, "unit": "%"}, {"measurement": "viability at 100 µM", "setting": "[1]; [5]", "result": 47, "unit": "%"}, {"measurement": "viability at 250 µM", "setting": "[1]; [5]", "result": 28, "unit": "%"}, {"measurement": "melting point", "result": "147 to 148", "unit": "°C"}, {"measurement": "viability at 24 h, 0.1 µM", "setting": "[2]", "result": 100, "unit": "%"}, {"measurement": "viability at 24 h, 1 µM", "setting": "[2]", "result": 90, "unit": "%"}, {"measurement": "viability at 24 h, 10 µM", "setting": "[2]", "result": 85, "unit": "%"}, {"measurement": "viability at 24 h, 50 µM", "setting": "[2]", "result": 65, "unit": "%"}, {"measurement": "viability at 24 h, 100 µM", "setting": "[2]", "result": 27, "unit": "%"}, {"measurement": "viability at 24 h, 250 µM", "setting": "[2]", "result": 7, "unit": "%"}, {"measurement": "viability at 24 h, 500 µM", "setting": "[2]", "result": 7, "unit": "%"}, {"measurement": "Toxicity to healthy cells versus lung cancer cells", "setting": "[3]; 50 µM, HepaRG vs A-549", "result": "more toxic to healthy cells compared with lung cancer cells"}, {"measurement": "Precipitation in cell-culture media", "setting": "[4]; 50 µM, no conclusion on cytotoxicity possible", "result": "precipitation problem"}]}]}
